This note sets out measurements from patent US7186861B2 (priority 2002, dated 2007).

For the test, the system named is Plasmopara viticola. The test is described as follows: Activity against downy mildew of grapes caused by Plasmopara viticola (lasting effect, inoculation 7 days after spraying). The format is in vivo. To be noted: 63 ppm active compound; potted vines Müller-Thurgau; inoculated 7 days after spraying; untreated plants 90% infected. On the procedure:
The active compounds were prepared, separately or together, as a 10% emulsion in a mixture of 70% by weight of cyclohexanone, 20% by weight of Nekanil® LN (Lutensol® AP6, wetting agent with an emulsifying and dispersing action based on ethoxylated alkylphenols) and 10% by weight of Wettol® EM (nonionic emulsifier based on ethoxylated castor oil) and were appropriately diluted with water to the desired concentration.
Leaves of potted vines of the variety “Müller-Thurgau” were sprayed to runoff point with an aqueous preparation of active compound prepared from a stock solution consisting of 10% of active compound, 85% of cyclohexanone and 5% of emulsifier. In order to be able to assess the lasting effects of the substances, the plants, after the spray coating had dried on, were placed in a greenhouse for 7 days. Only then were the leaves inoculated with an aqueous suspension of zoospores of Plasmopara viticola. The vines were then initially placed in a chamber saturated with water vapor at 24° C. for 48 hours and subsequently in a greenhouse at temperatures of between 20 and 30° C. for 5 days. After this period of time, the plants were once more placed in a humid chamber for 16 hours to accelerate the eruption of sporangiphores. The extent to which the infection had developed on the undersides of the leaves was then determined visually.

The compound `CCC=C(C(=O)NCCc1ccc(OCC)c(OC)c1)c1ccc(Cl)c(Cl)c1` [Compound I-44] came in with an infection of 3%. For `CC/C=C(/C(=O)NCCc1ccc(OCC)c(OC)c1)c1ccc(Cl)c(Cl)c1` [compound A], the infection is 40%.
